According to patent US10660877B2 (BRISTOL-MYERS SQUIBB COMPANY, priority 2016, dated 2020):
Where two headings read alike, the source gives them in different places.

Tests used:
human TLR7 = human TLR7 (Homo sapiens (Human), UniProt Q9NYK1); assay: TLR7 inhibition reporter assay (HEK-Blue cells, SEAP reporter, gardiquimod stimulation); type: cell-based
human TLR8 = human TLR8 (Homo sapiens (Human), UniProt Q9NR97); assay: TLR8 inhibition reporter assay (HEK-Blue cells, SEAP reporter, R848 stimulation);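 also: compounds tested from 0.05 nM to 50 µM, 22 h at 37 °C, SEAP measured with HEK-Blue Detection, inhibition relative to agonist plus DMSO versus a known inhibitor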
Chain of human TLR8 (Q9NR97 27-1041): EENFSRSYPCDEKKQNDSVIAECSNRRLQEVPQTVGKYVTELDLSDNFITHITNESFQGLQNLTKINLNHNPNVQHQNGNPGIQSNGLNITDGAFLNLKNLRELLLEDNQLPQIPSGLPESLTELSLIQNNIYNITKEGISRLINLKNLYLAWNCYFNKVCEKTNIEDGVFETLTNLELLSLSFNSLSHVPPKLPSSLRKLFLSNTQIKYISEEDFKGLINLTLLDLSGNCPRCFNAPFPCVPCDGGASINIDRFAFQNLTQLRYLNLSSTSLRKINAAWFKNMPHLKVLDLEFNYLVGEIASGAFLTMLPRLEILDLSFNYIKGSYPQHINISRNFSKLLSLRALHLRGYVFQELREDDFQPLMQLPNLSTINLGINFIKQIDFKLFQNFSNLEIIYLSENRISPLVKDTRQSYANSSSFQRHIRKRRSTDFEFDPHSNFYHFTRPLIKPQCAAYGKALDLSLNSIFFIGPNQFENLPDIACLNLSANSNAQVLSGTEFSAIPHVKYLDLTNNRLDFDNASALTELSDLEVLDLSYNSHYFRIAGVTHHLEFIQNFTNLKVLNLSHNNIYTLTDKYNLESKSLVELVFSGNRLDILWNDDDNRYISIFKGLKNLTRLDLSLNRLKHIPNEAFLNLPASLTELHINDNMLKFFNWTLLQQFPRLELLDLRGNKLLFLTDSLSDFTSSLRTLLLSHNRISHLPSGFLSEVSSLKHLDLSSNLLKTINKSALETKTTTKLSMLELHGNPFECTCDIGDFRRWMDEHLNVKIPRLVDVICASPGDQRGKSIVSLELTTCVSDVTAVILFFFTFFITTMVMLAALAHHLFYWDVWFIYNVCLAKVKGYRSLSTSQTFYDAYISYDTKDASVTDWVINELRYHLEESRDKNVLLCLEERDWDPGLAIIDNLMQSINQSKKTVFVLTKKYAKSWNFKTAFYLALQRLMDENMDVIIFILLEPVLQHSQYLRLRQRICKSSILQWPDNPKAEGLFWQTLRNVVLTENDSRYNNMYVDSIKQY

human TLR9 = human TLR9 (Homo sapiens (Human), UniProt Q9NR96); assay: TLR9 inhibition reporter assay (HEK-Blue cells, SEAP reporter, ODN2006 stimulation);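 also: compounds tested over 0.05 nM to 50 µM, 22 h incubation, inhibition taken as SEAP signal drop from agonist plus DMSO wells toward a known inhibitor control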
Chain of human TLR9 (Q9NR96 26-1032): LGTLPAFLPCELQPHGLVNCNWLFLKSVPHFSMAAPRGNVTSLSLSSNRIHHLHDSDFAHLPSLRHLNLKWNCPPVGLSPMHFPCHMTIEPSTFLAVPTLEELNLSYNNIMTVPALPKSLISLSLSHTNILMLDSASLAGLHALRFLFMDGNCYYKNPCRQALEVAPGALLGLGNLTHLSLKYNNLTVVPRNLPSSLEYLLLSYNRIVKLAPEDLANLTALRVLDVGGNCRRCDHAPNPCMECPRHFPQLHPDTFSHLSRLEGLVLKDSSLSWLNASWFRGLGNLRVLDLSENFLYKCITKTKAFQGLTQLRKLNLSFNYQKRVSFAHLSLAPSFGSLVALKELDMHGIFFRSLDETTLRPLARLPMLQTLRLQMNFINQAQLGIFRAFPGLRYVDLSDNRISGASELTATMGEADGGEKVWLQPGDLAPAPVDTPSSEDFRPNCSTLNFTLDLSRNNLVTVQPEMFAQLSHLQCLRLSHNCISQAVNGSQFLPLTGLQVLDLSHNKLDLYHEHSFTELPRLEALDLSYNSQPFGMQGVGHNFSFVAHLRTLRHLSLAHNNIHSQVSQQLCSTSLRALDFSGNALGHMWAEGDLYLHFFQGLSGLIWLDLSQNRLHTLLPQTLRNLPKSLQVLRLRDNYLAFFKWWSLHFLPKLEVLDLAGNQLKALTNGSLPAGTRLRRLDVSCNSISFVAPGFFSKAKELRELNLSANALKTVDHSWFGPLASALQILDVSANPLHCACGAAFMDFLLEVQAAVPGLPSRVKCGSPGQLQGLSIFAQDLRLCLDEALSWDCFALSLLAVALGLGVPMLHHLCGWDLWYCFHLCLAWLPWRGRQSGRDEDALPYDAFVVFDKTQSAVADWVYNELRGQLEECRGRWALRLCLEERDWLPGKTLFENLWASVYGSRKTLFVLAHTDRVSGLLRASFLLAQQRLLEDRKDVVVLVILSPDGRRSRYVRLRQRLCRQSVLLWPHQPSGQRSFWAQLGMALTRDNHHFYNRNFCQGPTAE

[1] = HEK-Blue cells overexpressing human TLR7, gardiquimod 7.5 μM
[2] = read-out: TLR8 IC50, HEK-Blue cells overexpressing human TLR8, R848 15.9 μM
[3] = read-out: TLR9 IC50, HEK-Blue cells overexpressing human TLR9, ODN2006 5 nM
[4] = TLR8 IC50, HEK-Blue cells overexpressing human TLR8, R848 15.9 μM
[5] = TLR9 IC50, HEK-Blue cells overexpressing human TLR9, ODN2006 5 nM

Chain of human TLR7 (Q9NYK1 27-1049): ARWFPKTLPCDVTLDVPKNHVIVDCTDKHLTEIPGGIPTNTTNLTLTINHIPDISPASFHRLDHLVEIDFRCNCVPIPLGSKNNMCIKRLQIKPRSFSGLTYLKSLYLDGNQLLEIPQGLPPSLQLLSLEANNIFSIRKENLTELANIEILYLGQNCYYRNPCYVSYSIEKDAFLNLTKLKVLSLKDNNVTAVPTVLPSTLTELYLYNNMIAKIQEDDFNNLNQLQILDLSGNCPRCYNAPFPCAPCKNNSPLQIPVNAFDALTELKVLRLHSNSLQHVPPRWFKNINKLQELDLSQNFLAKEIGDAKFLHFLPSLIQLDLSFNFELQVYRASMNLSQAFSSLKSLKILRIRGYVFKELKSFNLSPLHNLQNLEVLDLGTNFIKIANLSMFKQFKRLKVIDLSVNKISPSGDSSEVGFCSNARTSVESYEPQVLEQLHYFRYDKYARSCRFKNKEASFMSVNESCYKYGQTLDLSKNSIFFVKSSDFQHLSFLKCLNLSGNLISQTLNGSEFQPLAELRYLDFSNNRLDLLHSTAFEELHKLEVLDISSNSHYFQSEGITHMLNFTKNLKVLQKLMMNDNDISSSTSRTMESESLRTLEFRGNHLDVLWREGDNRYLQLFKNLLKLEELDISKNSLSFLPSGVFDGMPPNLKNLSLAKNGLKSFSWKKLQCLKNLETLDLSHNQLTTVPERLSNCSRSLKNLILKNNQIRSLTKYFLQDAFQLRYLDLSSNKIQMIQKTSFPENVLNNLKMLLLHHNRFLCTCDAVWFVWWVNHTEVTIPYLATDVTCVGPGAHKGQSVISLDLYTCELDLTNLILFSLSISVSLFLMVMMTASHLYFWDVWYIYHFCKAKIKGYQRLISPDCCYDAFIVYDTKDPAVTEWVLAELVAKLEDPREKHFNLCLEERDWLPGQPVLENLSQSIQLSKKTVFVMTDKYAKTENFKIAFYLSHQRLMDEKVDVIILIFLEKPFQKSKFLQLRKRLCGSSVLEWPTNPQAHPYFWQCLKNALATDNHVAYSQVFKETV

Row | IC50 (human TLR7; [1]) [µM] | IC50 (human TLR8; [2]) [µM] | IC50 (human TLR9; [3]) [µM] | IC50 (human TLR8; [4]) [µM] | IC50 (human TLR9; [5]) [µM] | IC50 (human TLR7; HEK-Blue cells, gardiquimod 7.5 μM) [µM] | IC50 (human TLR8; read-out: TLR8 IC50, HEK-Blue cells, R848 15.9 μM) [µM] | IC50 (human TLR9; read-out: TLR9 IC50, HEK-Blue cells, ODN2006 5 nM) [µM] | Structure (SMILES)
1 | 0.0079 | 0.101 | 5.1 | – | – | – | – | – | Cc1cc(-c2[nH]c3ccc(C4CCN(C(=O)C5(N(C)C)CC5)CC4)cc3c2C(C)C)cc(C)n1 [Example 172, (1-(dimethylamino)cyclopropyl)(4-(2-(2,6-dimethylpyridin-4-yl)-3-isopropyl-1H-indol-5-yl)piperidin-1-yl)methanone]
2 | 0.0075 | – | – | 0.0726 | 36.2 | – | – | – | Cc1cc(-c2[nH]c3ccc(C4CCN(C(=O)C5CC(=O)N(C)C5)CC4)cc3c2C(C)C)cc(C)n1 (stereo not drawn) [Example 102, 4-(4-(2-(2,6-dimethylpyridin-4-yl)-3-isopropyl-1H-indol-5-yl)piperidine-1-carbonyl)-1-methylpyrrolidin-2-one]
3 | 0.0035 | 0.013 | 0.604 | – | – | – | – | – | Cc1cc(-c2[nH]c3ccc(C4CCN(CC(=O)N5CCC[C@@H](O)C5)CC4)cc3c2C(C)C)cc(C)n1 [Example 209, (R)-2-(4-(2-(2,6-dimethylpyridin-4-yl)-3-isopropyl-1H-indol-5-yl)piperidin-1-yl)-1-(3-hydroxypiperidin-1-yl)ethan-1-one]
4 | 0.0082 | – | – | 0.0203 | 0.99 | – | – | – | Cc1cc(-c2[nH]c3ccc(C4CCN(CC(=O)N(C)C(C)C)CC4)cc3c2C(C)C)cc(C)n1 [Example 244, 2-(4-(2-(2,6-dimethylpyridin-4-yl)-3-isopropyl-1H-indol-5-yl)piperidin-1-yl)-N-isopropyl-N-methylacetamide]
5 | 0.002 | – | – | 0.0062 | 0.225 | – | – | – | Cc1cc(-c2[nH]c3ccc(C4CCN(CC(=O)N5CCC[C@H](O)C5)CC4)cc3c2C(C)C)cc(C)n1 [Example 210, (S)-2-(4-(2-(2,6-dimethylpyridin-4-yl)-3-isopropyl-1H-indol-5-yl)piperidin-1-yl)-1-(3-hydroxypiperidin-1-yl)ethan-1-one]
6 | 0.0541 | 0.0636 | 0.608 | – | – | – | – | – | CCc1c(-c2cc(C)nc(C)c2)[nH]c2ccc(C3CCN(CC(=O)NC)CC3)cc12 [Example 527, 2-(4-(2-(2,6-dimethylpyridin-4-yl)-3-ethyl-1H-indol-5-yl)piperidin-1-yl)-N-methylacetamide]
7 | – | – | – | – | – | 0.215 | 0.0473 | 0.086 | Cc1nc[nH]c1CN1CCC(c2ccc3[nH]c(-c4ccnc(N)c4)c(C(C)C)c3c2)CC1 [Example 816, 4-(3-isopropyl-5-(1-((4-methyl-1H-imidazol-5-yl)methyl)piperidin-4-yl)-1H-indol-2-yl)pyridin-2-amine]
8 | 2.11 | 0.0866 | 0.159 | – | – | – | – | – | CCc1c(-c2ccncc2)[nH]c2ccc(C3CCN(C4CCN(CC(C)C)CC4)CC3)cc12 [Example 779, 3-ethyl-5-(1′-isobutyl-[1,4′-bipiperidin]-4-yl)-2-(pyridin-4-yl)-1H-indole]
9 | 0.0083 | 0.0081 | 0.173 | – | – | – | – | – | Cc1cc(-c2[nH]c3ccc(C4CCN(C5CCN(C(C)C)CC5)CC4)cc3c2C(C)C)cc(C)n1 [Example 427, 2-(2,6-dimethylpyridin-4-yl)-3-isopropyl-5-(1′-isopropyl-[1,4′-bipiperidin]-4-yl)-1H-indole]
10 | 0.0164 | 0.124 | 28.8 | – | – | – | – | – | Cc1cc(-c2[nH]c3ccc(C4CCN(C(=O)Cc5csc(C)n5)CC4)cc3c2C(C)C)cc(C)n1
11 | 5.86 | 0.0275 | 0.325 | – | – | – | – | – | CNCCN1CCC(c2ccc3[nH]c(-c4ccncc4OC)c(C)c3c2)CC1 [Example 754, 2-(4-(2-(3-methoxypyridin-4-yl)-3-methyl-1H-indol-5-yl)piperidin-1-yl)-N-methylethan-1-amine]
12 | 0.0054 | 0.007 | 0.446 | – | – | – | – | – | COc1cc(OC)nc(CN2CCC(c3ccc4[nH]c(-c5cc(C)nc(C)c5)c(C(C)C)c4c3)CC2)n1 [Example 447, 5-(1-((4,6-dimethoxypyrimidin-2-yl)methyl)piperidin-4-yl)-2-(2,6-dimethylpyridin-4-yl)-3-isopropyl-1H-indole]
13 | 0.0156 | 0.0551 | 3.31 | – | – | – | – | – | COc1cc(-c2[nH]c3ccc(C4CCN(C)CC4)cc3c2C(C)C)ccn1 [Example 638, 3-isopropyl-2-(2-methoxypyridin-4-yl)-5-(1-methylpiperidin-4-yl)-1H-indole]
14 | 0.01 | 0.02 | 0.817 | – | – | – | – | – | Cc1cc(-c2[nH]c3ccc(C4CCN(CC(=O)NC5(C)CCC5)CC4)cc3c2C(C)C)cc(C)n1 [Example 243, 2-(4-(2-(2,6-dimethylpyridin-4-yl)-3-isopropyl-1H-indol-5-yl)piperidin-1-yl)-N-(1-methylcyclobutyl)acetamide]
15 | 0.0044 | 0.0175 | 0.514 | – | – | – | – | – | Cc1cc(-c2[nH]c3ccc(C4CCN(C(=O)CN5CCCCC5C)CC4)cc3c2C(C)C)cc(C)n1 (stereo not drawn) [Example 377, 1-(4-(2-(2,6-dimethylpyridin-4-yl)-3-isopropyl-1H-indol-5-yl)piperidin-1-yl)-2-(2-methylpiperidin-1-yl)ethan-1-one]
16 | 0.613 | 0.114 | 0.045 | – | – | – | – | – | CCc1c(-c2ccnc(N)c2)[nH]c2ccc(C3CCN(C4CCN(CC(C)C)CC4)CC3)cc12 [Example 773, 4-(3-ethyl-5-(1′-isobutyl-[1,4′-bipiperidin]-4-yl)-1H-indol-2-yl)pyridin-2-amine]
17 | 0.0103 | 0.0723 | 9.38 | – | – | – | – | – | Cc1cc(-c2[nH]c3ccc(C4CCN(C(=O)CN(C)Cc5cc(C)on5)CC4)cc3c2C(C)C)cc(C)n1 [Example 417, 1-(4-(2-(2,6-dimethylpyridin-4-yl)-3-isopropyl-1H-indol-5-yl)piperidin-1-yl)-2-(methyl((5-methylisoxazol-3-yl)methyl)amino)ethan-1-one]
18 | 0.008 | – | – | 0.0638 | 22.4 | – | – | – | Cc1cc(-c2[nH]c3ccc(C4CCN(C(=O)C5CC(=O)N(C)C5)CC4)cc3c2C(C)C)cc(C)n1 (stereo not drawn) [Example 100, 4-(4-(2-(2,6-dimethylpyridin-4-yl)-3-isopropyl-1H-indol-5-yl)piperidine-1-carbonyl)-1-methylpyrrolidin-2-one]
19 | 0.33 | 0.1 | 1.94 | – | – | – | – | – | CCc1c(-c2ccnc(OC)c2)[nH]c2ccc(C3CCN(CCNC)CC3)cc12 [Example 778, 2-(4-(3-ethyl-2-(2-methoxypyridin-4-yl)-1H-indol-5-yl)piperidin-1-yl)-N-methylethan-1-amine]
20 | 0.0016 | 0.0096 | 0.281 | – | – | – | – | – | Cc1cc(-c2[nH]c3ccc(C4CCN(C(=O)[C@@H]5C[C@@H](F)CN5)CC4)cc3c2C(C)C)cc(C)n1 [Example 190, (4-(2-(2,6-dimethylpyridin-4-yl)-3-isopropyl-1H-indol-5-yl)piperidin-1-yl)((2S,4R)-4-fluoropyrrolidin-2-yl)methanone]
21 | 0.0021 | 0.0029 | 0.28 | – | – | – | – | – | Cc1cc(-c2[nH]c3ccc(C4CCN(CC5CCOC5)CC4)cc3c2C(C)C)cc(C)n1 (stereo not drawn) [Example 469, 2-(2,6-dimethylpyridin-4-yl)-3-isopropyl-5-(1-((tetrahydrofuran-3-yl)methyl)piperidin-4-yl)-1H-indole]
22 | 0.489 | 0.281 | 1.77 | – | – | – | – | – | COc1c(-c2[nH]c3ccc(C4CCNCC4)cc3c2C(C)C)cc[n+]([O-])c1C [Example 57]
23 | 0.0064 | 0.0155 | 0.192 | – | – | – | – | – | Cc1cc(-c2[nH]c3ccc(C4CCN(CC(=O)N5CCCCC5C)CC4)cc3c2C(C)C)cc(C)n1 (stereo not drawn) [Example 270, 2-(4-(2-(2,6-dimethylpyridin-4-yl)-3-isopropyl-1H-indol-5-yl)piperidin-1-yl)-1-(2-methylpiperidin-1-yl)ethan-1-one]
24 | 0.0353 | – | – | 0.0105 | 0.755 | – | – | – | Cc1cc(-c2[nH]c3ccc(C4CCN(Cc5cncnc5)CC4)cc3c2C(C)C)cc(C)n1 [Example 434, 2-(2,6-dimethylpyridin-4-yl)-3-isopropyl-5-(1-(pyrimidin-5-ylmethyl)piperidin-4-yl)-1H-indole]
25 | 0.0071 | 0.0057 | 0.722 | – | – | – | – | – | Cc1cc(-c2[nH]c3ccc(C4CCN(C(=O)CCN(C)C)CC4)cc3c2C(C)C)ccn1 [Example 578, 3-(dimethylamino)-1-(4-(3-isopropyl-2-(2-methylpyridin-4-yl)-1H-indol-5-yl)piperidin-1-yl)propan-1-one]
26 | 0.0058 | 0.0026 | 0.948 | – | – | – | – | – | Cc1cc(-c2[nH]c3ccc(C4CCN(CC(C)C)CC4)cc3c2C(C)C)c(C)cn1 [Example 666, 2-(2,5-dimethylpyridin-4-yl)-5-(1-isobutylpiperidin-4-yl)-3-isopropyl-1H-indole]
27 | 0.207 | 0.0588 | 2.37 | – | – | – | – | – | CCc1c(-c2ccnc(OC)c2)[nH]c2ccc(C3CCNCC3)cc12 [Example 61, 3-ethyl-2-(2-methoxypyridin-4-yl)-5-(piperidin-4-yl)-1H-indole]
28 | 0.0009 | – | – | 0.0197 | 0.323 | – | – | – | CNCCC(=O)N1CCC(c2ccc3[nH]c(-c4cc(C)nc(C)c4)c(C(C)C)c3c2)CC1 [Example 183, 1-(4-(2-(2,6-dimethylpyridin-4-yl)-3-isopropyl-1H-indol-5-yl)piperidin-1-yl)-3-(methylamino)propan-1-one]
29 | 0.0019 | – | – | 0.0019 | 0.12 | – | – | – | CNCCN1CCC(c2ccc3[nH]c(-c4cc(C)nc(C)c4)c(C(C)C)c3c2)CC1 [Example 428, 2-(4-(2-(2,6-dimethylpyridin-4-yl)-3-isopropyl-1H-indol-5-yl)piperidin-1-yl)-N-methylethan-1-amine]
